Like-named read-outs stand apart in the source and are kept apart here. Positions of bridges follow the written chain, without caps; N, C: chain ends. No end group written: not given here.
Legend:
rSK3 H491N = biological target: T1, rSK3 H491N (Rattus norvegicus, UniProt P70605, H486N); settings: cited from earlier work
T1 construct: expressed in transfected cells; host or cells: HEK293 (transient, co-transfected with eGFP)

hBK = biological target: T2, hBK (Homo sapiens, UniProt Q12791); assay: Manual whole cell patch clamp, HEK293 transiently transfected with hBK; format: cell-based; settings: paxilline 3 μM, after BBP 1 μM
T2 construct: expressed in transfected cells; host or cells: HEK293 (transient, co-transfected with eGFP)
Method: HEK293 cells were transiently co-transfected with the plasmid of interest (hBK, hSK1, hSK2, hSK3 WT, rSK3 H491N, or hIK) and eGFP using standard Lipofectamine™ 2000 (Thermo Fisher Scientific, Waltham, Massachussets, USA) transfection protocols. After transfection, cells were incubated overnight before the experiments.
Manual patch clamp experiments were performed at room temperature in the whole cell configuration with a HEKA EPC9 amplifier and the Patchmaster software (HEKA Elektronik, Ludwigshafen, Germany). All currents were elicited every 2 s using an incremental 200 ms voltage-ramp protocol starting at −80 mV and finishing at +80 mV from a holding potential of 0 mV. […]
To assess the effect of BBP on other calcium-activated potassium channels (hBK, hSK3 WT, rSK3 H491N, and hIK), each individual current was first normalized to its cell size using membrane's capacitance (pA/pF) before statistical analysis. […] Statistical significance between saline and the effect of both BBP and the corresponding reference compound was determined for each channel using one-way ANOVA analysis. […]
After testing BBP on the three SK channel subtypes, we decided to explore whether other calcium-activated potassium channels were affected by the compound. […] Finally, a positive control was used to inhibit the remaining current and quantify the total effect of BBP. […]

T2 sequence (Q12791 whole entry): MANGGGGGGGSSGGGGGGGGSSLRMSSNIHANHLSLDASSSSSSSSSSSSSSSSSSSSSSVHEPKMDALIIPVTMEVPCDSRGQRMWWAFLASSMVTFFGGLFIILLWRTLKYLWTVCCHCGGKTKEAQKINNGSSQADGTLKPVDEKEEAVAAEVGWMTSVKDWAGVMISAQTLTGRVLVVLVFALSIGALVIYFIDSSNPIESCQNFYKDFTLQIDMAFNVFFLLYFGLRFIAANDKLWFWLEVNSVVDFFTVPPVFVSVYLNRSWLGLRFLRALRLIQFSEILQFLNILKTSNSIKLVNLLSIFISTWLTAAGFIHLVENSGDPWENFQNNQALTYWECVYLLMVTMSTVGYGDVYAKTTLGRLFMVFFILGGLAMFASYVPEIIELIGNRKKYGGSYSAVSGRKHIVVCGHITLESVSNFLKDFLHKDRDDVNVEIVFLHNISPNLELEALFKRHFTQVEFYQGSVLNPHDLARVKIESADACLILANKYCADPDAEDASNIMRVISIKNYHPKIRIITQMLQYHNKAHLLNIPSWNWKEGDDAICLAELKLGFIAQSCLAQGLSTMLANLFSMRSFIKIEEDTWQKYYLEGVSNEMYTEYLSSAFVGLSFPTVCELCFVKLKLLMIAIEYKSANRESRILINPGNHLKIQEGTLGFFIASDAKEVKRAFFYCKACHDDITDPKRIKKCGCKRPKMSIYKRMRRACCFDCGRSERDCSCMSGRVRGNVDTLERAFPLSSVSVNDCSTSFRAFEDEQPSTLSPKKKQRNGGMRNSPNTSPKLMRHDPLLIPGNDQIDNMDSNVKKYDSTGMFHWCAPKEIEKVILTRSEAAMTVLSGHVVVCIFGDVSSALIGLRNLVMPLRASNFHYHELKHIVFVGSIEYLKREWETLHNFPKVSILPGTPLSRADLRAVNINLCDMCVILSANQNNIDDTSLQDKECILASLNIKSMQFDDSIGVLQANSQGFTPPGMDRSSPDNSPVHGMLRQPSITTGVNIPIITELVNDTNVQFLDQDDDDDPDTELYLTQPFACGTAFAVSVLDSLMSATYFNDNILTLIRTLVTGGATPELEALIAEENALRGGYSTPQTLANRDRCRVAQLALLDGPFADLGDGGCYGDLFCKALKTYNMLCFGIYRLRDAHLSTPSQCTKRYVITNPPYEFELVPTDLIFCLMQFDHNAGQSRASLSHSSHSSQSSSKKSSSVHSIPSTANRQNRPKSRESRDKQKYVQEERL

For `COc1cc2c3cc1Oc1cc(ccc1O)C[C@@H]1c4c(cc(OC)c(O)c4Oc4ccc(cc4)C[C@@H]3N(C)CC2)CC[N+]1(C)C` [D-tubocurarine], the “Sensitivity of rSK3 H491N mutant to blocker” value (“Sensitivity” for short) (rSK3 H491N; ref Lamy et al., 2010) is given as “insensitive”.
For `c1cc2cc(c1)C[n+]1ccc(c3ccccc31)NCc1ccc(cc1)CNc1cc[n+](c3ccccc13)C2` [UCL1684], the “Sensitivity” value (rSK3 H491N) is given as “insensitive”.
In the case of `CC(C)(O)[C@H]1O[C@H]2CC[C@@]3(C)[C@@](O)(CC[C@H]4Cc5c([nH]c6ccccc56)[C@@]43C)C2=CC1=O` [paxilline, reference compound], the “Effect on remaining hBK current (reference)” value (hBK) is reported as “totally inhibited”.
In the case of “apamin (CNCKAPETALCARRCQQH-NH2; disulfide 1-11, 3-15; ends not checked; UniProt P01500 28-45, looked up)”, the “Sensitivity” value (rSK3 H491N; ref Lamy et al., 2010) is listed as “insensitive”.
